Like-named read-outs stand apart in the source and are kept apart here.
Legend:
[1] = Experimental: The solubility of the organic carboxylic acid strontium salts, were measured in water. The solubility of these salts was also measured as a function of temperature. This was performed by incubating the saturated solutions of the salts in temperature controlled incubators.
The buffered solutions were immersed into a bath of water temperature controlled at either room temperature (22-24° C.), at 30° C. or at 40° C. […] In order to eliminate any reminiscent strontium chloride influence on the determination of solubility, all the precipitate was collected at the bottom of the test tubes and the solutions above the precipitate were carefully removed and substituted by fresh solutions. […] From these solutions, the dissolved proportions of the strontium salt were collected in volumes of 1 mL at the specified temperature. The solutions were diluted to 50 mL before analysis by Flame Atomic Absorption Spectrometry (F-AAS).
Two methods were used for quantification of strontium in solutions: Flame Atomic Absorption Spectrometry (F-AAS), and the more sensitive inductively-coupled-plasmamass spectrometry (ICP-MS).
The solubilities were investigated as described above, and strontium content in the saturated solutions determined as described here below.
Some of the very soluble strontium salts were further diluted before analysis by F-AAS. The measurements were performed by using a Perkin-Elmer 2100 equipped with a hydrogen lamp for correction of the background signal. Strontium was measured at a slit with of 0.2 nm, the wavelength was 460.8 nm operated at an energy of 58 and a current of 8 mA.
This analysis was performed using a Perkin Elmer Elan 5000 system equipped with a cross-flow nebulizer. The power was set at 1000 W and the Argon-gas flow was 12 L/min and 0.8 L/min of the torch and plasma gas, respectively.

Remark: listed apart in the source
[2] = values quoted in scientific literature or reference material; cited from earlier work

Compound	SOLUBILITY AT 40° C., In water [1] [mg/L]	SOLUBILITY AT ROOM TEMPERATURE (22-24° C.), In water [1] [Mg/L]	solubility compared to the other organic strontium salts [1]	SOLUBILITY AT 40° C., pH 7.5 ([1]; pH 7.5) [mg/L]	SOLUBILITY AT ROOM TEMPERATURE (22-24° C.), pH 7.5 ([1]; pH 7.5) [Mg/L]	solubility in pH 7.5 buffered solution compared with pure water ([1]; pH 7.5)	time to maximum serum concentration (rat, in vivo, po)	Solubility, Measured ([1]; commercially available salts, in water at room temperature (22-24°)) [g/L]	time to maximum serum concentration (serum strontium, single oral gavage, rats)	Solubility, Expected Value 18° C. [2] [g/L]
O=C([O-])/C=C/C(=O)[O-].[Sr+2] [Fumerate, strontium fumarate]	444	571	poor solubility	977	1215					
O=C([O-])/C=C\C(=O)[O-].[Sr+2] [Maleate, strontium maleate]	2527	3002		1457	1680	decreased solubility in the buffered solution				
CC(=O)C(=O)O [Pyruvate, strontium pyruvate]		2204			1946					
N#Cc1c(N(CC(=O)[O-])CC(=O)[O-])sc(C(=O)[O-])c1CC(=O)[O-].[Sr+2].[Sr+2] [Ranelate, distrontium salt of 2-[N,N-di(carboxymethyl)amino]-3-cyano-4-carboxymethylthiophene-5-carboxylic acid, reference compound]	1450	760		1970	890		approximately 2 hours			
[Cl-].[Cl-].[Sr+2] [SrCl2, strontium chloride]								240	approximately 2 hours	538

From patent publication US20130071496A1, “CONTROLLED RELEASE COMPOSITION CONTAINING A STRONTIUM SALT” (Osteologix A/S, priority 2003, published 2013)
